Measured values taken from ChEMBL document CHEMBL5303304, “EUbOPEN Chemogenomics Library - IncuCyte” (2023).
Numbered stars: 1 amine (or outer) side, 2 acyl side, 3 side chain; on linkers, the order of the positions; unused ones are H or OH. Bridge positions count the residues as written; N and C are the ends. Square brackets hold non-standard residues; d marks the D form. Peptide text beside a SMILES is read from it. I, II: the chains in the order shown. Hexamethylenediamine = C(CCCN[*:2])CCN[*:1]; Dip = N[C@H](C(=O)O)C(c1ccccc1)c1ccccc1; Chg = N[C@H](C(=O)O)C1CCCCC1; NMeA = CN[C@@H](C)C(=O)O

Experiments:
Assay type in all cases: toxicity, cell-based
Fibroblast = experiment: Incucyte cell viability with human fibroblast; settings: 10 µM, compound concentration 10 uM
U2OS = experiment: Incucyte cell viability with U2OS; settings: human, 10 µM, compound concentration 10 uM
HEK-293T = experiment: Incucyte cell viability with HEK293T; settings: human, 10 µM, compound concentration 10 uM
Further: unitless GR value; below 1 slowed growth and below 0 cell loss.

Structure (SMILES)	Growth Rate (Fibroblast; 12 h, replicate number 1)	Growth Rate (Fibroblast; 12 h, replicate number 2)	Growth Rate (Fibroblast; 18 h, replicate number 1)	Growth Rate (Fibroblast; 18 h, replicate number 2)	Growth Rate (Fibroblast; 24 h, replicate number 1)	Growth Rate (Fibroblast; 24 h, replicate number 2)	Growth Rate (U2OS; 0 h, replicate number 2)	Growth Rate (U2OS; 6 h, replicate number 1)	Growth Rate (U2OS; 6 h, replicate number 2)	Growth Rate (U2OS; 18 h, replicate number 1)	Growth Rate (U2OS; 18 h, replicate number 2)	Growth Rate (U2OS; 24 h, replicate number 1)	Growth Rate (U2OS; 24 h, replicate number 2)	Growth Rate (HEK-293T; 12 h, replicate number 2)	Growth Rate (HEK-293T; 18 h, replicate number 2)	Growth Rate (HEK-293T; 24 h, replicate number 2)	Growth Rate (Fibroblast; 0 h, replicate number 2)	Growth Rate (Fibroblast; 6 h, replicate number 2)	Growth Rate (HEK-293T; 24 h, replicate number 1)	Growth Rate (U2OS; 12 h, replicate number 2)	also measured
COc1cc(CN(CCN)C(=O)N[C@@H](C)c2ccccc2)ccc1OCc1ccccc1.Cl	0.94	0.41	0.87	0.71	0.72	0.83	-0.26	0.64	0.82	0.98	0.92	0.79	1	0.77	0.81	0.74	–	–	–	–	Growth Rate (Fibroblast; 0 h, replicate number 1): -1; Growth Rate (Fibroblast; 6 h, replicate number 1): 0.29; Growth Rate (U2OS; 0 h, replicate number 1): -0.64; Growth Rate (U2OS; 12 h, replicate number 1): 0.69
COc1ccc(S(=O)(=O)N2CCOCC2)cc1Nc1ccc2c(n1)N(C1CCOCC1)[C@H](C)C(=O)N2C	–	0.55	–	0.25	–	0.36	–	–	–	–	–	0.7	0.96	–	–	0.81	-0.13	-0.44	0.7	–	–
CN[C@@H](C)C(=O)N[C@H](C(=O)N1CCC[C@H]1C(=O)N[C@H](C(=O)NCCCCCCNC(=O)[C@@H](NC(=O)[C@@H]1CCCN1C(=O)[C@@H](NC(=O)[C@H](C)NC)C1CCCCC1)C(c1ccccc1)c1ccccc1)C(c1ccccc1)c1ccccc1)C1CCCCC1 (I: H-[NMeA][Chg]P[Dip] / II: H-[NMeA][Chg]P[Dip]; linker I:C-II:C via Hexamethylenediamine)	0.82	0.74	0.47	0.49	0.5	0.33	-0.47	-0.4	-0.46	-0.25	-0.21	-0.22	-0.21	-0.4	-0.31	-0.25	-0.82	–	-0.23	-0.63	Growth Rate (U2OS; 12 h, replicate number 1): -0.41; Growth Rate (HEK-293T; 6 h, replicate number 1): -0.33; Growth Rate (HEK-293T; 6 h, replicate number 2): -0.41; Growth Rate (HEK-293T; 12 h, replicate number 1): -0.42; Growth Rate (HEK-293T; 18 h, replicate number 1): -0.3
C[C@H](C[C@H](N)C(=O)O)C(=O)O [2S,4R-4-METHYLGLUTAMATE]	–	0.66	–	–	0.42	0.97	–	–	0.65	–	0.82	–	0.94	–	–	–	-0.67	0.92	–	0.89	Growth Rate (HEK-293T; 0 h, replicate number 2): 0.9
N#CN1CC[C@H](C(=O)Nc2nc3c(s2)CN(C(=O)CN=[N+]=[N-])CC3)C1 [8RK64]	0.41	–	–	–	–	–	–	–	–	–	0.94	–	0.89	0.81	0.93	0.94	0.48	–	–	–	Growth Rate (HEK-293T; 6 h, replicate number 2): 0.66; Growth Rate (HEK-293T; 12 h, replicate number 1): 0.99
Cc1onc(O)c1CC(N)C(=O)O [(R,S)-AMPA]	-1	0.59	–	–	–	–	-0.98	–	0.78	–	0.94	–	0.94	0.69	0.64	–	–	-0.99	0.74	0.82	Growth Rate (Fibroblast; 0 h, replicate number 1): -0.2; Growth Rate (U2OS; 0 h, replicate number 1): -0.22; Growth Rate (HEK-293T; 0 h, replicate number 2): 0.65; Growth Rate (HEK-293T; 6 h, replicate number 1): 0.47; Growth Rate (HEK-293T; 6 h, replicate number 2): 0.09; Growth Rate (HEK-293T; 12 h, replicate number 1): 0.21; Growth Rate (HEK-293T; 18 h, replicate number 1): 0.78
CCC(=N\O)/C(C)=C/c1ccc(F)cc1 [A-079]	–	–	0.86	–	–	–	-0.97	0.53	0.16	1	0.78	–	0.79	-0.09	0.33	0.57	-0.47	–	–	0.89	Growth Rate (Fibroblast; 6 h, replicate number 1): 0.02; Growth Rate (HEK-293T; 6 h, replicate number 1): 0.09; Growth Rate (HEK-293T; 6 h, replicate number 2): -0.79
O=C(Cc1ccccc1)Nc1nnc(N2CC[C@@H]3[C@H]2CN3c2cccnn2)s1 [A-426]	0.76	0.86	0.8	0.69	0.73	–	–	0.79	–	0.77	–	0.84	–	–	–	–	–	0.16	0.85	–	Growth Rate (Fibroblast; 6 h, replicate number 1): 0.66; Growth Rate (U2OS; 0 h, replicate number 1): -0.69; Growth Rate (U2OS; 12 h, replicate number 1): 0.69; Growth Rate (HEK-293T; 6 h, replicate number 1): 0.31; Growth Rate (HEK-293T; 12 h, replicate number 1): 0.39; Growth Rate (HEK-293T; 18 h, replicate number 1): 0.67
O=C(Cc1ccccc1)Nc1nnc(N2C[C@H]3C[C@@H]2CN3c2cccnn2)s1 [A-446]	0.45	0.18	0.27	0.19	0.33	0.04	0.56	0.82	0.43	0.54	0.8	0.87	0.77	0.97	0.86	0.94	0.67	-0.04	0.93	0.59	Growth Rate (Fibroblast; 6 h, replicate number 1): 0.15; Growth Rate (U2OS; 0 h, replicate number 1): 0.34; Growth Rate (U2OS; 12 h, replicate number 1): 0.68; Growth Rate (HEK-293T; 0 h, replicate number 1): 0.58; Growth Rate (HEK-293T; 0 h, replicate number 2): -0.11; Growth Rate (HEK-293T; 6 h, replicate number 2): 0.68; Growth Rate (HEK-293T; 12 h, replicate number 1): 0.83
